Test results reported in patent US8940909B2, “Indicator platform” (Biosynth AG, priority 2009, dated 2015).

Experiments:
[1] = tested on: beta-galactosidase positive Eschericha coli (NM1); test: IO staining of bacterial colonies on Nutrient Agar (color, fluorescence, localization, growth); as to C: Color of colonies (strength): key: −: absent; +/−: weak; +: strong; ++: very strong; as to F: Fluorescence of colonies (strength): key: −: absent; +/−: weak; +: strong; ++: very strong; as to G: Growth of colonies: key: −: absent; +/−: weak; +: strong; ++: very strong; as to L: Localization of stain on colonies: key: −: absent; +/−: weak; +: strong; ++: very strong; type: cell-based, E. coli; conditions: 150 mg/l substrate and 100 mg/l IPTG
Description: Nutrient Agar (5 g/l peptone, 5 g/l NaCl, 2 g/l yeast extract, 1 g/l beef extract, 13 g/l agar, pH 7.4) was autoclaved and allowed to cool to 50° C. Then indicators were added to final concentrations of 150 mg/l (from a 20 mg/ml stock solution in DMF).
Optionally IPTG was added to 100 mg/l (from a 100 mg/ml stock solution in H2O) and plates were poured. Agar plates were inoculated with cultures of beta-galactosidase positive Eschericha coli (NM1) or beta-galactosidase negative Salmonella enteritidis (RKI 05/07992) (pre-grown on nutrient broth for 8-18 hours) and incubated at 37° C. Plates were inspected at 16, 20, 24 and 48 hours and pictures were recorded at 18, 24, and 48 hours with a Digistore 2 Image documentation system (CAMAG) under white light.
A considerable number of indicators molecules (Table IVa, IVb) and a selection of labile groups (Table IVc) were tested with various microbial species producing different biomarker enzymes (external stimuli, eS). The color of stains ranges from yellow to red.
Plating media from Example 10 were examined under 366 nm UV irradiation at 16, 20, 24 and 48 hours for fluorescence by means of Digistore 2 Image documentation system (CAMAG). Loops of bacterial cells, grown for 48 hours on Nutrient Agar plates containing 150 mg/l beta-D-galactosidase indicator and 100 mg/l IPTG, were directly streaked into wells of black clear bottom microtiter plates. Fluorescence scans were recorded on a Spectramax M5 (Molecular Devices).

[2] = tested on: bacteria producing various biomarker enzymes; test: IO staining of colonies of bacteria producing various biomarker enzymes (Table IVc); type: cell-based; conditions: for F: Fluorescence of colonies (hue): hue of fluorescence of stained colonies, 24 h on agar containing the indicator (Table IVc)
[3] = Bacillus cereus strain 51, plc +, 24 h on Tryptic Soy Agar, 0.78 mM PC PLC Indicator, 3.2 g/l BSA, 0.05% Tween80, 5 mM MnCl2
[4] = Bacillus cereus strain 191, plc +, 24 h on Tryptic Soy Agar, 0.78 mM PC PLC Indicator, 3.2 g/l BSA, 0.05% Tween80, 5 mM MnCl2
[5] = Bacillus cereus strain 192, plc +, 24 h on Tryptic Soy Agar, 0.78 mM PC PLC Indicator, 3.2 g/l BSA, 0.05% Tween80, 5 mM MnCl2
[6] = Bacillus cereus strain 289, plc +, 24 h on Tryptic Soy Agar, 0.78 mM PC PLC Indicator, 3.2 g/l BSA, 0.05% Tween80, 5 mM MnCl2
[7] = Bacillus mycoides strain 64, plc +, 24 h on Tryptic Soy Agar, 0.78 mM PC PLC Indicator, 3.2 g/l BSA, 0.05% Tween80, 5 mM MnCl2
[8] = Bacillus thuringiensis strain 66, plc +, 24 h on Tryptic Soy Agar, 0.78 mM PC PLC Indicator, 3.2 g/l BSA, 0.05% Tween80, 5 mM MnCl2
[9] = Escherichia coli strain 61, plc +/−, 24 h on Tryptic Soy Agar, 0.78 mM PC PLC Indicator, 3.2 g/l BSA, 0.05% Tween80, 5 mM MnCl2
[10] = Escherichia coli strain 270, plc +/−, 24 h on Tryptic Soy Agar, 0.78 mM PC PLC Indicator, 3.2 g/l BSA, 0.05% Tween80, 5 mM MnCl2
[11] = Listeria monocytogenes (4b) strain 290, plc +, 24 h on Tryptic Soy Agar, 0.78 mM PC PLC Indicator, 3.2 g/l BSA, 0.05% Tween80, 5 mM MnCl2
[12] = Pseudomonas aeruginosa strain 168, plc +, 24 h on Tryptic Soy Agar, 0.78 mM PC PLC Indicator, 3.2 g/l BSA, 0.05% Tween80, 5 mM MnCl2
[13] = Pseudomonas aeruginosa strain 168, plc +, 24 h on Tryptic Soy Agar, 0.78 mM PC PLC Indicator, 3.2 g/l BSA, 0.05% Tween80, 5 mM MnCl2, natural color, same on agar without substrate
[14] = Pseudomonas aeruginosa strain 168, plc +, 24 h on Tryptic Soy Agar, 0.78 mM PC PLC Indicator, 3.2 g/l BSA, 0.05% Tween80, 5 mM MnCl2, natural fluorescence, same on agar without substrate
[15] = Escherichia coli strain 61, glucuronidase +, 24 h on Nutrient Agar, 0.45 mM beta-D-Glucuronidase Indicator
[16] = Escherichia coli strain 62, glucuronidase +, 24 h on Nutrient Agar, 0.45 mM beta-D-Glucuronidase Indicator
[17] = Escherichia coli strain 270, glucuronidase +, 24 h on Nutrient Agar, 0.45 mM beta-D-Glucuronidase Indicator
[18] = Klebsiella pneumoniae strain 164, glucuronidase −, 24 h on Nutrient Agar, 0.45 mM beta-D-Glucuronidase Indicator
[19] = Bacillus cereus strain 289, 24 h on Nutrient Agar, 0.52 mM C1-Esterase Indicator
[20] = Escherichia coli strain 270, 24 h on Nutrient Agar, 0.52 mM C1-Esterase Indicator
[21] = Klebsiella pneumoniae strain 164, 24 h on Nutrient Agar, 0.52 mM C1-Esterase Indicator
[22] = Enterobacter aerogenes strain 242, a-glucosidase −, 24 h on Nutrient Agar, 150 mg/l alpha-D-Glucosidase Indicator
[23] = Enterobacter cloacae strain 245, a-glucosidase −, 24 h on Nutrient Agar, 150 mg/l alpha-D-Glucosidase Indicator
[24] = Enterobacter sakazakii strain 141, a-glucosidase +, 24 h on Nutrient Agar, 150 mg/l alpha-D-Glucosidase Indicator
[25] = Enterobacter sakazakii strain 142, a-glucosidase +, 24 h on Nutrient Agar, 150 mg/l alpha-D-Glucosidase Indicator
[26] = Escherichia coli strain 270, a-glucosidase −, 24 h on Nutrient Agar, 150 mg/l alpha-D-Glucosidase Indicator
[27] = Shigella sonnei strain 133, a-glucosidase −, 24 h on Nutrient Agar, 150 mg/l alpha-D-Glucosidase Indicator

O=C(c1ccccc1)c1ccc(Cl)cc1-n1cc(O[C@@H]2O[C@H](CO)[C@H](O)[C@H](O)[C@H]2O)c2ccc(Cl)cc21 [Indicator I23a, 1-(2-Benzoyl-5-chlorophenyl)-6-chloro-1H-indol-3-yl-beta-D-galactopyranoside]
yellow: C: Color of colonies (colour of stain) ([1]; 24 h on Nutrient Agar)
green-yellow: F: Fluorescence of colonies (colour) ([1]; 24 h, 366 nm UV)
+: G: Growth of colonies ([1]; E. coli, 24 h) | L: Localization of stain on colonies ([1]; E. coli, 24 h) | F: Fluorescence of colonies (strength) ([1]; E. coli, 24 h, 366 nm UV) | C: Color of colonies (strength) ([1]; E. coli, 24 h on Nutrient Agar)

5-Bromo-4-chloro-1H-indol-3-yl choline phosphate [Indicator I4d, reference compound]
+: G: Growth of colonies [2, 3] | G: Growth of colonies [2, 4] | G: Growth of colonies [2, 5] | G: Growth of colonies [2, 6] | C: Color of colonies [2, 7] | G: Growth of colonies [2, 7] | G: Growth of colonies [2, 8] | C: Color of colonies [2, 9] | G: Growth of colonies [2, 9] | G: Growth of colonies [2, 10] | G: Growth of colonies [2, 11] | G: Growth of colonies [2, 12]
++: C: Color of colonies [2, 5]
+/−: C: Color of colonies [2, 3] | C: Color of colonies [2, 4] | C: Color of colonies [2, 8] | C: Color of colonies [2, 10]
−: F: Fluorescence of colonies [2, 3] | F: Fluorescence of colonies [2, 4] | F: Fluorescence of colonies [2, 5] | C: Color of colonies [2, 6] | F: Fluorescence of colonies [2, 6] | F: Fluorescence of colonies [2, 7] | F: Fluorescence of colonies [2, 8] | F: Fluorescence of colonies [2, 9] | F: Fluorescence of colonies [2, 10] | C: Color of colonies [2, 11] | F: Fluorescence of colonies [2, 11] | F: Fluorescence of colonies (hue) [2]
y-g^1: C: Color of colonies [2, 13]
b^2: F: Fluorescence of colonies [2, 14]

O=C(c1ccccc1)c1ccccc1-n1cc(O[C@@H]2O[C@H](C(=O)[O-])[C@@H](O)[C@H](O)[C@H]2O)c2ccc(Cl)cc21.[Na+] [Indicator I21f, 1-(2-Benzoylphenyl)-6-chloro-1H-indol-3-yl-beta-D-glucuronide sodium salt]
−: C: Color of colonies [2, 18] | F: Fluorescence of colonies [2, 18]
+: C: Color of colonies [2, 15] | G: Growth of colonies [2, 15] | C: Color of colonies [2, 16] | G: Growth of colonies [2, 16] | C: Color of colonies [2, 17] | G: Growth of colonies [2, 17] | G: Growth of colonies [2, 18]
y-o: F: Fluorescence of colonies (hue) [2]
+/−: F: Fluorescence of colonies [2, 15] | F: Fluorescence of colonies [2, 16] | F: Fluorescence of colonies [2, 17]

CC(=O)Oc1cn(-c2ccccc2C(=O)c2ccccc2)c2ccccc12 [Indicator I19c, 1-(2-Benzoylphenyl)-1H-indol-3-yl acetate]
+: G: Growth of colonies [2, 19] | G: Growth of colonies [2, 20] | C: Color of colonies [2, 21] | G: Growth of colonies [2, 21]
+/−: C: Color of colonies [2, 20]
++: C: Color of colonies [2, 19]

1-[2-(2,4-Dimethoxybenzoyl)phenyl]-1H-indol-3-yl choline phosphate [Indicator I25d]
b^2: F: Fluorescence of colonies [2, 14]
+/−: C: Color of colonies [2, 9] | F: Fluorescence of colonies [2, 9] | C: Color of colonies [2, 10] | F: Fluorescence of colonies [2, 10]
+: C: Color of colonies [2, 3] | G: Growth of colonies [2, 3] | C: Color of colonies [2, 4] | G: Growth of colonies [2, 4] | G: Growth of colonies [2, 5] | C: Color of colonies [2, 6] | G: Growth of colonies [2, 6] | C: Color of colonies [2, 7] | G: Growth of colonies [2, 7] | C: Color of colonies [2, 8] | G: Growth of colonies [2, 8] | G: Growth of colonies [2, 9] | G: Growth of colonies [2, 10] | G: Growth of colonies [2, 11] | G: Growth of colonies [2, 12]
++: F: Fluorescence of colonies [2, 3] | F: Fluorescence of colonies [2, 4] | C: Color of colonies [2, 5] | F: Fluorescence of colonies [2, 5] | F: Fluorescence of colonies [2, 6] | F: Fluorescence of colonies [2, 7] | F: Fluorescence of colonies [2, 8]
y-g: F: Fluorescence of colonies (hue) [2]
y-g^1: C: Color of colonies [2, 13]
−: C: Color of colonies [2, 11] | F: Fluorescence of colonies [2, 11]

O=C(c1ccccc1)c1ccccc1-n1cc(O[C@H]2O[C@H](CO)[C@@H](O)[C@H](O)[C@H]2O)c2ccc(Cl)cc21 [Indicator I21e, 1-(2-Benzoylphenyl)-6-chloro-1H-indol-3-yl-alpha-D-glucopyranoside]
+: G: Growth of colonies [2, 22] | G: Growth of colonies [2, 23] | C: Color of colonies [2, 24] | G: Growth of colonies [2, 24] | C: Color of colonies [2, 25] | G: Growth of colonies [2, 25] | G: Growth of colonies [2, 26] | G: Growth of colonies [2, 27]
y-g: F: Fluorescence of colonies (hue) [2]
+/−: F: Fluorescence of colonies [2, 24] | F: Fluorescence of colonies [2, 25]
−: C: Color of colonies [2, 22] | F: Fluorescence of colonies [2, 22] | C: Color of colonies [2, 23] | F: Fluorescence of colonies [2, 23] | C: Color of colonies [2, 26] | F: Fluorescence of colonies [2, 26] | C: Color of colonies [2, 27] | F: Fluorescence of colonies [2, 27]

CC(=O)Oc1c[nH]c2ccc(Br)c(Cl)c12 [Indicator I4c, 5-Bromo-4-chloro-1H-indol-3-yl acetate, reference compound]
+/−: G: Growth of colonies [2, 20]
+: C: Color of colonies [2, 21] | G: Growth of colonies [2, 21]
−: C: Color of colonies [2, 19] | F: Fluorescence of colonies [2, 19] | G: Growth of colonies [2, 19] | C: Color of colonies [2, 20] | F: Fluorescence of colonies [2, 20] | F: Fluorescence of colonies [2, 21] | F: Fluorescence of colonies (hue) [2]

O=C([O-])[C@H]1O[C@@H](Oc2c[nH]c3cc(Cl)ccc23)[C@H](O)[C@@H](O)[C@@H]1O.[Na+] [Indicator I3f, 6-Chloro-1H-indol-3-yl-beta-D-glucuronide sodium salt, reference compound]
−: F: Fluorescence of colonies [2, 15] | F: Fluorescence of colonies [2, 16] | F: Fluorescence of colonies [2, 17] | C: Color of colonies [2, 18] | F: Fluorescence of colonies [2, 18]
+: C: Color of colonies [2, 15] | G: Growth of colonies [2, 15] | C: Color of colonies [2, 16] | G: Growth of colonies [2, 16] | C: Color of colonies [2, 17] | G: Growth of colonies [2, 17] | G: Growth of colonies [2, 18]
